Source: patent US8415312B2, “Compound which is a nystatin derivative” (Biosergen AS, priority 2007, dated 2013)
In brackets after ≈: the same amount, converted by molar mass. Several values for one entry are separate records, joined by “and”; a condition that tells them apart may be missing. Equal entries are not always repeated.

Legend:
[1] = test system: Fusarium oxysporum VKM F-140; test: Antifungal susceptibility study (1), broth microdilution MIC; type: cell-based; settings: lowest concentration preventing any visible growth, read at 48 hours, 35° C., RPMI 1640 pH 7.0
Description: (§1) ACROS ORGANICS, New Jersey, USA), pH 7.0, was used in study. […] Then these DMSO solutions were diluted 50-fold (first 10-fold and then 5-fold) in the test medium. […] The solutions were prepared just before using. The organisms used for susceptibility testing were: Candida albicans ATCC 14053, Cryptococcus humicolus ATCC 9949, Aspergillus niger ATCC 16404 and Fusarium oxysporum VKM F-140 (=CMI, IMI 90473). Organisms were stored on potato dextrose agar […] 50% glycerol solution at -70° C. For short-term storage, stock cultures were stored on agar […] 4° C. The cultures of yeasts were sub-cultured onto Sabouraud dextrose (SAB) agar and incubated for 24 hours at 35° C. (Candida albicans) or for 48 hours at 25° C. (Cryptococcus humicolus) to obtain a freshly grown pure culture. The cultures of moulds were sub-cultured onto potato dextrose agar and incubated for 7 days at 35° C. […] (Fusarium oxysporum) to ensure maximum sporulation. […] Finally, the suspensions were vortexed for 15 s to break up clumps of cells and then filtered through four layers of sterile gauze. The densities of conidial spore suspensions was measured at 530 nm and adjusted to 0.09-0.11 for Aspergillus niger and 0.15-0.17 for Fusarium oxysporum. These suspensions were diluted 1:50 with the standard medium. […] Inoculum quantitation was performed by plating dilution of the inoculum on Sabouraud dextrose agar to determine the viable number of CFU per milliliter. Sterile 96-well flat-bottomed microtitration plates were used for testing. 100 μl of diluted inocula were dispensed into each microdilution well containing 100 μl of the double dilutions of compounds. Drug-free and yeast/mould-free controls were included. Microdilution trays were incubated at 35° C. (Candida albicans and moulds) or 25° C. (Cryptococcus humicolus) without agitation and observed for the presence or absence of visible growth. […] Minimal inhibitory concentrations (MICs) were read at 48 hours.

[2] = test system: Aspergillus niger ATCC 16404; test: as above; type: cell-based; settings: lowest concentration preventing any visible growth, read at 48 hours, 35° C., RPMI 1640 pH 7.0
Description: as §1

erythrocytes = test: In vitro toxicity study, haemolysis (Tables 11 and 12); type: cell-based, horse; settings: for Haemolysis of erythrocytes, Mean ± S.E.M.: 25 μM (Table 12)
Description: The toxicity of various nystatin derivatives was tested at 2 and 5 μg/mL and at 25 μM.
Compounds were dissolved in DMSO at 5 mg/mL and 0.1 mL samples with different concentrations were prepared in DMSO. The samples were mixed with 0.9 mL PBS buffer containing 2.5% horse blood (PBS-HB; kept on ice) and incubated at 37° C. for 30 min without agitation.
Cells were pelleted by centrifugation at 5000 rpm for 5 min and haemolysis was evaluated by measuring OD545. 100% haemolysis was defined as the OD545 value obtained from a suspension of 2.5% horse blood in distilled water.

[3] = test system: Cryptococcus humicolus ATCC 9949; test: Antifungal susceptibility study (1), broth microdilution MIC; type: cell-based; settings: lowest concentration preventing any visible growth, read at 48 hours, 25° C., RPMI 1640 pH 7.0
Description: (§2) ACROS ORGANICS, New Jersey, USA), pH 7.0, was used in study. […] Then these DMSO solutions were diluted 50-fold (first 10-fold and then 5-fold) in the test medium. […] The solutions were prepared just before using. The organisms used for susceptibility testing were: Candida albicans ATCC 14053, Cryptococcus humicolus ATCC 9949, Aspergillus niger ATCC 16404 and Fusarium oxysporum VKM F-140 (=CMI, IMI 90473). Organisms were stored on potato dextrose agar […] 50% glycerol solution at -70° C. For short-term storage, stock cultures were stored on agar […] 4° C. The cultures of yeasts were sub-cultured onto Sabouraud dextrose (SAB) agar and incubated for 24 hours at 35° C. (Candida albicans) or for 48 hours at 25° C. (Cryptococcus humicolus) to obtain a freshly grown pure culture. The cultures of moulds were sub-cultured onto potato dextrose agar and incubated for 7 days at 35° C. […] (Fusarium oxysporum) to ensure maximum sporulation. […] Inoculum quantitation was performed by plating dilution of the inoculum on Sabouraud dextrose agar to determine the viable number of CFU per milliliter. Sterile 96-well flat-bottomed microtitration plates were used for testing. 100 μl of diluted inocula were dispensed into each microdilution well containing 100 μl of the double dilutions of compounds. Drug-free and yeast/mould-free controls were included. Microdilution trays were incubated at 35° C. (Candida albicans and moulds) or 25° C. (Cryptococcus humicolus) without agitation and observed for the presence or absence of visible growth. […] Minimal inhibitory concentrations (MICs) were read at 48 hours.

[4] = test system: Candida albicans ATCC 14053; test: as above; type: cell-based; settings: lowest concentration preventing any visible growth, read at 48 hours, 35° C., RPMI 1640 pH 7.0
Description: as §2

[5] = test system: Candida albicans (strain 14053 ATCC); test: Model of the candidiasis sepsis of mice, kidney burden; type: in vivo
Description: In experiments used female mice of hybrids of first generation (C57B1/6xDBA/2)F1 (B6D2F1), weight 18-20 g., received from the Central farm “Kryukovo” of Russian Academies of Medical Science (RAMS). Animals were maintained in Institute' vivarium in plastic cages (with hardwood bedding in environmentally controlled room: 24±1° C., 12/12 hours light/dark cycle) on a standard diet of bricketed forages with an easy approach to drinking water (ad libitum). After 2-week quarantine healthy animals were used in experimental work.
A preparation of comparison was amphotericin B (pure). Solutions of tested preparations prepared ex tempore by the technique specified by the customer.
Animals were housed on 3 mice and infected intravenously with culture Candida albicans in a doze 1.0 million CFU/mouse in volume of 0.1 ml. It is necessary to note, that doze Candida albicans remained a constant in all experiments. In 30 minutes after infection to mice carried out the first intravenous introduction of tested preparations in corresponding dozes in volume of 0.2 ml (with a speed of 0.2 ml/30 second).
Experiment has been planned in such a manner that in each experiment one doze (both for amphotericin B was used, and for tested preparations), each doze entered daily within four days, since day of infection (0, 1, 2 and 3 days). At each experiment there was a group untreated, infected with Candida albicans animals. Also there was a group “placebo”, intact (not infected) animals, which intravenously (in the same volume as medical preparations) injected 0.2 ml of solvent—phosphatic buffer +5% glucose (1:1).
On the post challenge 5th day of experiment, mice were weighed and euthanized (killed) by a cervical dislocation. Then, in sterile conditions, Candida albicans burdens were determined by viable counting of homogenates from the kidneys. The kidneys, which were removed aseptically and weighed, pounded in porcelain mortars with sterile corundum, did dilutions of the received suspensions and sowed on Petri dishes with agar Saburo, incubated for 48 hours at temperature 35° C., then counted up developed colonies Candida albicans and recalculated their quantity on 1 g of kidney' tissue. The first dilution was 10^−1. Zero result at this cultivation accepted for 5 CFU/g.
For the basic criterion of an assessment of the investigated preparations the maximal effect of the Amphotricin B was accepted (effective dose, ED).
For significant accepted distinctions of average at P≦0.05 at comparison by Student t-criterion.

[6] = test system: mice (C57B1/6xDBA/2)F1 B6D2F1; settings: single injection into tail vein, probit analysis
Description: Male mice of hybrids of first generation (C57B1/6xDBA/2)F1 B6D2F1, weight 20-22 g., received from the Central farm. “Kryukovo” of Russian Academies of Medical Science (RAMS) were used. Animals were maintained in a vivarium in plastic cages (with hardwood bedding in environmentally controlled conditions: 24±1° C., 12/12 hours light/dark cycle) on a standard diet of bricketed forages with easy access to drinking water (ad libitum). After a 2-week quarantine period, healthy animals were used in experimental work.
The solutions were prepared as follows: dry antibiotic substances (5 mg) were mixed with dry sodium deoxycholate (4.1 mg) in a sterile glass vial. 10 mL of phosphate buffer (NaH2PO4—1.59 g; Na2HPO4—0.96 g; H2O—to 100 mL) was added to the mix and the suspension was immediately subjected to vigorous shaking for 10 minutes until homogeneous suspensions were formed.
Preparations of amphotericin B and S44HP were also prepared in the same way.
The antibiotic preparations were singly injected into the mice's tail vein within 1-1.5 hours after the preparation of solutions. […] Each antibiotic was used in a range of doses resulting in 0% to 100% lethality and a minimum of 3 intermediate doses. Animals were randomized into groups, each containing 6 mice.

[7] = 25 μM, individual blood samples (Table 12)
[8] = dose 0.16 mg/kg/d i.v. for four days, day 5, n=3 mice
[9] = dose 0.62 mg/kg/d i.v. for four days, day 5, n=3 mice
[10] = dose 2.5 mg/kg/d i.v. for four days, day 5, n=3 mice
[11] = dose 10 mg/kg/d i.v. for four days, day 5, n=3 mice, zero result accepted for 5 CFU/g

| Compound | MIC Fusarium oxysporum VKM F-140 [1] [µg/mL] | MIC Aspergillus niger ATCC 16404 [2] [µg/mL] | Haemolysis of erythrocytes, Mean ± SE (erythrocytes; 5 μg/mL (Table 11)) [%] | Haemolysis of erythrocytes (erythrocytes; 5 μg/mL, individual blood samples # 1-3 (Table 11)) | Haemolysis of erythrocytes, Mean ± S.E.M. (erythrocytes) [%] | Haemolysis of erythrocytes (erythrocytes; [7]) | MIC Cryptococcus humicolus ATCC 9949 [3] [µg/mL] | MIC Candida albicans ATCC 14053 [4] [µg/mL] | Candida albicans burden in kidneys (Mean) [5, 8] [CFU/g] | Candida albicans burden in kidneys (Mean) [5, 9] [CFU/g] | Candida albicans burden in kidneys (Mean) [5, 10] [CFU/g] | Candida albicans burden in kidneys (Mean) [5, 11] [CFU/g] | Candida albicans burden in kidneys (Mean) ([5]; in vivo, iv, 1.25 mg/kg/day) [CFU/g] | LD50 [6] [mg/kg] | MTD [6] [mg/kg] | Candida albicans burden in kidneys (Mean) ([5]; dose 1.25 mg/kg/d i.v. for four days, day 5, n=3 mice) [CFU/g] |
| --- | --- | --- | --- | --- | --- | --- | --- | --- | --- | --- | --- | --- | --- | --- | --- | --- |
| CC1C=CC=CC=CC=CC=CC=CC=CC(OC2OC(C)C(O)C(N)C2O)CC2OC(O)(CC(O)C(O)CCC(O)CC(O)CC(O)CC(=O)OC(C)C(C)C1O)CC(O)C2C(N)=O (stereo not drawn) [Compound 7] | 8 (≈ 8.67 µM) | 2 (≈ 2.17 µM) | 5.2 ± 0.2 | 5.8% and 5.0% (2×) | 1.5 ± 0.17 | 1.7% and 1.3% and 1.9% (3×) and 1.0% and 0.9% | 1 (≈ 1.08 µM) | 2 (≈ 2.17 µM) | – | – | – | – | – | – | – | – |
| CNC(=O)C1C(O)CC2(O)CC(O)C(O)CCC(O)CC(O)CC(O)CC(=O)OC(C)C(C)C(O)C(C)C=CC=CC=CC=CC=CC=CC=CC(OC3OC(C)C(O)C(N)C3O)CC1O2 (stereo not drawn) [Compound 6] | 4 (≈ 4.27 µM) | 4 (≈ 4.27 µM) | – | – | 3.7 ± 0.6 | 3.7% and 4.3% and 3.2% and 2% and 2.4% and 3.3% and 7% | 2 (≈ 2.13 µM) | 2 (≈ 2.13 µM) | – | – | – | – | – | – | – | – |
| CC1O[C@@H](O[C@H]2/C=C/C=C/C=C/C=C/C=C/C=C/C=C/[C@H](C)[C@@H](O)[C@@H](C)[C@H](C)OC(=O)C[C@H](O)C[C@H](O)C[C@H](O)CC[C@@H](O)[C@H](O)C[C@]3(O)C[C@H](O)[C@@H](C(=O)NCCN(C)C)[C@H](C2)O3)[C@H](O)C(NCC2(O)OC[C@@H](O)[C@@H](O)[C@@H]2O)[C@@H]1O.Cl (stereo partly drawn) [Compound 41] | 2 | 1 | – | – | – | – | 1 | 0.5 | 67000 | 22667 | 1667 | 5 | 2767 | 38.6 | 21.2 | – |
| CC1C=CC=CC=CC=CC=CC=CC=CC(OC2OC(C)C(O)C(NCC3(O)OCC(O)C(O)C3O)C2O)CC2OC(O)(CC(O)C(O)CCC(O)CC(O)CC(O)CC(=O)OC(C)C(C)C1O)CC(O)C2C(=O)O (single isomer, unassigned) [Compound 17] | 8 (≈ 7.36 µM) | 2 (≈ 1.84 µM) | – | – | 2.4 ± 0.6 | 1.7% (2×) and 2.1% and 0.8% and 3.3% and 4.8% | 1 (≈ 0.921 µM) | 1 (≈ 0.921 µM) | – | – | – | – | – | – | – | – |
| CC1C=CC=CC=CC=CC=CC=CC=CC(OC2OC(C)C(O)C(N)C2O)CC2OC(O)(CC(O)C(O)CCC(O)CC(O)CC(O)CC(=O)OC(C)C(C)C1O)CC(O)C2C(=O)NCCO (stereo not drawn) [Compound 5] | 4 (≈ 4.14 µM) | 4 (≈ 4.14 µM) | – | – | 1.6 ± 0.2 | 1% and 1.9% and 1.3% and 2% and 1.8% and 2.1% | 4 (≈ 4.14 µM) | 2 (≈ 2.07 µM) | – | – | – | – | – | – | – | – |
| CC1O[C@@H](O[C@H]2/C=C/C=C/C=C/C=C/C=C/C=C/C=C/[C@H](C)[C@@H](O)[C@@H](C)[C@H](C)OC(=O)C[C@H](O)C[C@H](O)C[C@H](O)CC[C@@H](O)[C@H](O)C[C@]3(O)C[C@H](O)[C@@H](C(=O)NCCN(C)C)[C@H](C2)O3)[C@H](O)C(N)[C@@H]1O (stereo partly drawn) [Compound 48, N,N-dimethylaminoethyl (DMAE) S44HP Amide] | 1 (≈ 1.01 µM) | 1 (≈ 1.01 µM) | – | – | – | – | 0.5 (≈ 0.503 µM) | 0.5 (≈ 0.503 µM) | 51667 | 3233 | 63 | 5 | – | 32.2 | 25.9 | 1487 |
